Results published in ChEMBL document CHEMBL3352341, “Design, synthesis and biological characterization of thiazolidin-4-one derivatives as promising inhibitors of Toxoplasma gondii” (Eur J Med Chem, 2014).
Active and inactive are the calls of the source. No rule for the calls is given here.

What was measured:
[1] = Therapeutic index, ratio of TD50 for human foreskin fibroblasts to IC50 for Toxoplasma gondii infected in human foreskin fibroblasts; details: read-out: TI
Toxoplasma gondii [2] = test: Antiparasitic activity against Toxoplasma gondii infected in human foreskin fibroblasts assessed as inhibition of replication measured as decrease in the number of tachyzoites in vacuole at 10 uM after 24 hrs by fluorescence assay; type: functional, organism-based
[3] = Cytotoxicity against human foreskin fibroblasts after 5 days by colorimetric assay; type: cell-based; details: human foreskin fibroblasts (HFF cells), read-out: TD50
Toxoplasma gondii [4] = test: Antiparasitic activity against Toxoplasma gondii infected in human foreskin fibroblasts assessed as tachyzoite growth inhibition after 5 days by colorimetric assay; type: functional, organism-based; details: 120 h

Question: What does the source list for `O=C1CS/C(=N/N=C\c2ccncc2)N1Cc1ccccc1`?
Answer: selectivity ratio [1]: 2; inhibition (Toxoplasma gondii [2]): Active; CC50 at 120 h [3]: 203 µM; IC50 (Toxoplasma gondii [4]): 118 µM; IC90 (Toxoplasma gondii [4]): 304 µM

Question: What does the source list for `C/C(=N/N=C1/SCC(=O)N1Cc1ccccc1)c1ccccc1`?
Answer: selectivity ratio [1]: 9; inhibition (Toxoplasma gondii [2]): Active; CC50 at 120 h [3]: ≥ 320 µM; IC50 (Toxoplasma gondii [4]): 61 µM; IC90 (Toxoplasma gondii [4]): 294 µM

Question: For `C/C(=N/N=C1\NC(=O)CS1)c1ccco1`, which inhibition (Toxoplasma gondii [2]) is on record?
Answer: Active

Question: And the CC50 at 120 h [3]?
Answer: ≥ 320 µM

Question: What about the IC50 (Toxoplasma gondii [4]) of the same compound?
Answer: ≥ 320 µM

Question: Which selectivity ratio [1] does the source give for `CC/C(C)=N\N=C1/NC(=O)CS1` here?
Answer: 4

Question: And the inhibition (Toxoplasma gondii [2])?
Answer: Active

Question: And the CC50 at 120 h [3]?
Answer: ≥ 320 µM

Question: What about the IC50 (Toxoplasma gondii [4]) of the same compound?
Answer: 133 µM

Question: And the IC90 (Toxoplasma gondii [4])?
Answer: 1160 µM

Question: With `CC(C)=N/N=C1/SCC(=O)N1Cc1ccccc1` as the compound, how does the selectivity ratio [1] read?
Answer: 2

Question: What about the inhibition (Toxoplasma gondii [2]) of the same compound?
Answer: Active

Question: What about the CC50 at 120 h [3] of the same compound?
Answer: ≥ 320 µM

Question: And the IC50 (Toxoplasma gondii [4])?
Answer: 232 µM

Question: What about the IC90 (Toxoplasma gondii [4]) of the same compound?
Answer: 636 µM

Question: Which inhibition (Toxoplasma gondii [2]) does the source give for `C/C(=N/N=C1/SCC(=O)N1Cc1ccccc1)c1ccccn1` here?
Answer: Active

Question: What about the CC50 at 120 h [3] of the same compound?
Answer: ≥ 320 µM

Question: What about the IC50 (Toxoplasma gondii [4]) of the same compound?
Answer: ≥ 320 µM

Question: Which selectivity ratio [1] does the source give for `C/C(=N/N=C1\NC(=O)CS1)c1cccs1` here?
Answer: 9

Question: And the inhibition (Toxoplasma gondii [2])?
Answer: Active

Question: And the CC50 at 120 h [3]?
Answer: ≥ 320 µM

Question: And the IC50 (Toxoplasma gondii [4])?
Answer: 64 µM

Question: What about the IC90 (Toxoplasma gondii [4]) of the same compound?
Answer: 387 µM

Question: With `CC(C)(C)C1CCCC/C1=N/N=C1\NC(=O)CS1` (configuration not stated) as the compound, how does the selectivity ratio [1] read?
Answer: 3

Question: What about the inhibition (Toxoplasma gondii [2]) of the same compound?
Answer: Active

Question: What about the CC50 at 120 h [3] of the same compound?
Answer: ≥ 320 µM

Question: What about the IC50 (Toxoplasma gondii [4]) of the same compound?
Answer: 218 µM

Question: And the IC90 (Toxoplasma gondii [4])?
Answer: 693 µM

Question: Which results are given for `O=C1CS/C(=N/N=C\c2cccnc2)N1Cc1ccccc1`?
Answer: selectivity ratio [1]: 2; inhibition (Toxoplasma gondii [2]): Active; CC50 at 120 h [3]: 239 µM; IC50 (Toxoplasma gondii [4]): 111 µM; IC90 (Toxoplasma gondii [4]): 245 µM

Question: With `CC1CCC/C1=N/N=C1/SCC(=O)N1Cc1ccccc1` (configuration not stated) as the compound, how does the selectivity ratio [1] read?
Answer: 11

Question: What about the inhibition (Toxoplasma gondii [2]) of the same compound?
Answer: Active

Question: What about the CC50 at 120 h [3] of the same compound?
Answer: ≥ 320 µM

Question: What about the IC50 (Toxoplasma gondii [4]) of the same compound?
Answer: 53 µM

Question: And the IC90 (Toxoplasma gondii [4])?
Answer: 329 µM

Question: For `COc1cc(Cc2cnc(N)nc2N)cc(OC)c1OC` [TRIMETHOPRIM], which selectivity ratio [1] is on record?
Answer: 43

Question: What about the inhibition (Toxoplasma gondii [2]) of the same compound?
Answer: Active

Question: And the CC50 at 120 h [3]?
Answer: ≥ 320 µM

Question: And the IC50 (Toxoplasma gondii [4])?
Answer: 13 µM

Question: And the IC90 (Toxoplasma gondii [4])?
Answer: 73 µM

Question: What does the source list for `C/C(=N/N=C1/SCC(=O)N1Cc1ccccc1)c1cc2ccccc2oc1=O`?
Answer: inhibition (Toxoplasma gondii [2]): Active; CC50 at 120 h [3]: ≥ 320 µM; IC50 (Toxoplasma gondii [4]): ≥ 320 µM

Question: With `CCCCC/C(C)=N\N=C1\SCC(=O)N1Cc1ccccc1` as the compound, how does the selectivity ratio [1] read?
Answer: 5

Question: And the inhibition (Toxoplasma gondii [2])?
Answer: Active

Question: And the CC50 at 120 h [3]?
Answer: 88 µM

Question: And the IC50 (Toxoplasma gondii [4])?
Answer: 19 µM

Question: What about the IC90 (Toxoplasma gondii [4]) of the same compound?
Answer: 120 µM

Question: Which results are given for `C/C(=N/N=C1/SCC(=O)N1Cc1ccccc1)C1CCCCC1`?
Answer: selectivity ratio [1]: 3; inhibition (Toxoplasma gondii [2]): Active; CC50 at 120 h [3]: 60 µM; IC50 (Toxoplasma gondii [4]): 24 µM; IC90 (Toxoplasma gondii [4]): 71 µM

Question: With `C/C(=N\N=C1/NC(=O)CS1)c1ccncc1` as the compound, how does the selectivity ratio [1] read?
Answer: 11

Question: And the inhibition (Toxoplasma gondii [2])?
Answer: Active

Question: What about the CC50 at 120 h [3] of the same compound?
Answer: ≥ 320 µM

Question: And the IC50 (Toxoplasma gondii [4])?
Answer: 53 µM

Question: What about the IC90 (Toxoplasma gondii [4]) of the same compound?
Answer: 401 µM

Question: For `CC(C)=C/C(C)=N\N=C1\SCC(=O)N1Cc1ccccc1`, which selectivity ratio [1] is on record?
Answer: 3

Question: What about the inhibition (Toxoplasma gondii [2]) of the same compound?
Answer: Active

Question: What about the CC50 at 120 h [3] of the same compound?
Answer: 67 µM

Question: And the IC50 (Toxoplasma gondii [4])?
Answer: 23 µM

Question: What about the IC90 (Toxoplasma gondii [4]) of the same compound?
Answer: 186 µM

Question: For `CCC/C(C)=N\N=C1/NC(=O)CS1`, which selectivity ratio [1] is on record?
Answer: 2

Question: What about the inhibition (Toxoplasma gondii [2]) of the same compound?
Answer: Active

Question: And the CC50 at 120 h [3]?
Answer: ≥ 320 µM

Question: What about the IC50 (Toxoplasma gondii [4]) of the same compound?
Answer: 262 µM

Question: What about the IC90 (Toxoplasma gondii [4]) of the same compound?
Answer: 1060 µM

Question: Which selectivity ratio [1] does the source give for `C/C(=N/N=C1\NC(=O)CS1)C1CCCCC1` here?
Answer: 10

Question: What about the inhibition (Toxoplasma gondii [2]) of the same compound?
Answer: Active

Question: What about the CC50 at 120 h [3] of the same compound?
Answer: ≥ 320 µM

Question: What about the IC50 (Toxoplasma gondii [4]) of the same compound?
Answer: 55 µM

Question: What about the IC90 (Toxoplasma gondii [4]) of the same compound?
Answer: 283 µM

Question: Which selectivity ratio [1] does the source give for `CC1CCC(=N/N=C2\NC(=O)CS2)CC1` (configuration not stated) here?
Answer: 2

Question: And the inhibition (Toxoplasma gondii [2])?
Answer: Active

Question: And the CC50 at 120 h [3]?
Answer: ≥ 320 µM

Question: And the IC50 (Toxoplasma gondii [4])?
Answer: 226 µM

Question: What about the IC90 (Toxoplasma gondii [4]) of the same compound?
Answer: 777 µM

Question: What does the source list for `CC1CCC/C(=N/N=C2/SCC(=O)N2Cc2ccccc2)C1` (configuration not stated)?
Answer: selectivity ratio [1]: 2; inhibition (Toxoplasma gondii [2]): Active; CC50 at 120 h [3]: 95 µM; IC50 (Toxoplasma gondii [4]): 58 µM; IC90 (Toxoplasma gondii [4]): 248 µM

Question: Which selectivity ratio [1] does the source give for `CCC(CC)=N/N=C1\NC(=O)CS1` here?
Answer: 4

Question: What about the inhibition (Toxoplasma gondii [2]) of the same compound?
Answer: Active

Question: And the CC50 at 120 h [3]?
Answer: ≥ 320 µM

Question: What about the IC50 (Toxoplasma gondii [4]) of the same compound?
Answer: 126 µM

Question: And the IC90 (Toxoplasma gondii [4])?
Answer: 580 µM

Question: With `O=C1CS/C(=N/N=C\c2ccc3c(c2)OCO3)N1` as the compound, how does the inhibition (Toxoplasma gondii [2]) read?
Answer: Active

Question: What about the CC50 at 120 h [3] of the same compound?
Answer: ≥ 320 µM

Question: What about the IC50 (Toxoplasma gondii [4]) of the same compound?
Answer: ≥ 320 µM
